According to patent publication US20100063085A1, “METHOD OF TREATING LEARNING IMPAIRMENT IN DOWN'S SYNDROME SUBJECTS” (University Court of The University of Dundee, priority 2008, published 2010):
Like-named read-outs stand apart in the source and are kept apart here.

How the values were obtained:
Assay in all cases: biochemical
MARK3 = MARK3 (Homo sapiens, UniProt P27448); settings: read-out: MARK3 activity as percentage of control without inhibitor
Description: (§1) All assays (25.5 μl) were carried out at room temperature (21° C.) and were linear with respect to time and enzyme concentrations under the conditions used. Assays were performed for 30 minutes except assays for LCK and PKB which were performed for 15 minutes using Multidrop Micro reagent dispensers (Thermo Electron Corporation, Waltham, Mass. 02454, USA) in a 96-well format. The concentration of […] [γ-^33P] ATP (800 cpm/pmol) in the assays was one of three concentrations (5, 20 or 50 μM) in order to be at or below Km for ATP for the enzyme. Assays were initiated with MgATP and stopped by addition of 5 μl of 0.5M orthophosphoric acid. Assays were then harvested onto P81 filterplates using a unifilter harvester (PerkinElmer, Boston, Mass. 02118, USA), with a wash buffer of 50 mM orthophosphoric acid. Filterplates were then air dried overnight. 10 μl of Microscint O was added per well prior to counting for radioactivity.
(§2) The following kinases were assayed against the substrates indicated. Aurora B was assayed against the substrate peptide […] (300 μM), ERK8 and MST-2 were both assayed against MBP (0.33 mg/ml). IKKβ was assayed against the substrate peptide […] (300 μM), JNK3 was assayed against 3 μM ATF2[19-96]. MAPKAP-K3 and PKD1 were both assayed against […] (30 μM), MARK3 was assayed against CHKtide ([…]) substrate peptide (300 μM). MNK1 and MNK2 were both assayed against eIF4E protein (0.5 mg/ml). NEK7 was assayed against […] (300 μM), PIM2 was assayed against […] (300 μM), ΔPH PKBβ-S474D was assayed against Crosstide (30 μM), PLK1 was assayed against […] (300 μM). PRK2 was assayed against Long S6 peptide, […] (30 μM), RSK2 was assayed against […] (30 μM), SRC was assayed against cdc2 peptide, […], (300 μM) and SRPK1 was assayed against peptide […] (300 μM). All enzymes were diluted in 50 mM Tris/HCl pH 7.5, 0.1 mM EGTA, 1 mg/ml BSA, 0.1% β-mercaptoethanol buffer and assayed in an incubation containing 50 mM Tris/HCl pH7.5, 0.1 mM EGTA, 0.1% β-mercaptoethanol, CAMK-1 (5-20 mU) diluted in 50 mM Tris/HCl pH 7.5, 0.1 mM EGTA, 1 mg/ml BSA, 0.1% β-mercaptoethanol is assayed against substrate peptide […] in an incubation containing 50 mM Tris/HCl pH 7.5, 0.1 mM EGTA, 0.5 mM CaCl2, 0.3 μM calmodulin, 0.1% β-mereaptoethanol, 300 μM substrate peptide, 10 mM magnesium acetate and 0.05 mM [^33P-γ-ATP] (500-1000 cpm/pmole). EF2K (5-20 mU) diluted in 50 mM Hepes pH 6.6, 0.1% β-mercaptoethanol, 1 mg/ml BSA is assayed against a substrate peptide […] in an incubation containing 50 mM Hepes pH 6.6, 0.2 mM CaCl2, 0.3 μM Calmodulin, 0.05% b-mercaptoethanol, 300 μM substrate peptide, 10 mM magnesium acetate and 0.05 mM [^33P-γ-ATP] (500-1000 cpm/pmole).

EFK2 = molecular target: T1, EFK2 (Homo sapiens, UniProt O00418); settings: read-out: EFK2 activity as percentage of control without inhibitor
T1 sequence (O00418 1-725): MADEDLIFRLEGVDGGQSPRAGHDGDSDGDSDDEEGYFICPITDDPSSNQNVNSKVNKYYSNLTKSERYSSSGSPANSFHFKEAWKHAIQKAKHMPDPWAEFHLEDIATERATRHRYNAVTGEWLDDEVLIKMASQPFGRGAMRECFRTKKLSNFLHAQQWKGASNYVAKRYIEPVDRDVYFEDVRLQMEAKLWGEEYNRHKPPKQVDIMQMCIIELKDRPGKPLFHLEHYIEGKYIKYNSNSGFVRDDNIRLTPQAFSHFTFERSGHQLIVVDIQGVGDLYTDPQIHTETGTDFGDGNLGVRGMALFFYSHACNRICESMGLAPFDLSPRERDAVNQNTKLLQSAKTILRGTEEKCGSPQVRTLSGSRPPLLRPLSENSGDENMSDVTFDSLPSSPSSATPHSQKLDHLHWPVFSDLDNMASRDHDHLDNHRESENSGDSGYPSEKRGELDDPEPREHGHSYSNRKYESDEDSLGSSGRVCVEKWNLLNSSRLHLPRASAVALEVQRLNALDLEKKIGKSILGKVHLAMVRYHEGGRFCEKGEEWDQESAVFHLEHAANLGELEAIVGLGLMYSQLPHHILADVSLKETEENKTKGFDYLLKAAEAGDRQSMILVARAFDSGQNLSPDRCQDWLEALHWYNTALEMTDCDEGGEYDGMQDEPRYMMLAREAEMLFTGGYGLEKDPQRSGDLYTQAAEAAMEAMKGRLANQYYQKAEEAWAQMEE
Description: as §1, §2

MAPKAP-K3 = MAPKAP-K3 (Homo sapiens, UniProt Q16644); settings: read-out: MAPKAP-K3 activity as percentage of control without inhibitor
Description: as §1, §2

MNK2 = MNK2 (Homo sapiens, UniProt Q9HBH9); settings: read-out: MNK2 activity as percentage of control without inhibitor
Description: as §1, §2

NEK7 = NEK7 (Homo sapiens, UniProt Q8TDX7); settings: read-out: NEK7 activity as percentage of control without inhibitor
Description: as §1, §2

SRPK1 = SRPK1 (Homo sapiens, UniProt Q96SB4); settings: read-out: SRPK1 activity as percentage of control without inhibitor
Description: as §1, §2

Aurora B = Aurora B (Homo sapiens, UniProt Q96GD4); settings: read-out: Aurora B activity as percentage of control without inhibitor
Description: as §1, §2

MNK1 = MNK1 (Homo sapiens, UniProt Q9BUB5); settings: read-out: MNK1 activity as percentage of control without inhibitor
Description: as §1, §2

Chain of MARK3 (P27448 whole entry, species assumed): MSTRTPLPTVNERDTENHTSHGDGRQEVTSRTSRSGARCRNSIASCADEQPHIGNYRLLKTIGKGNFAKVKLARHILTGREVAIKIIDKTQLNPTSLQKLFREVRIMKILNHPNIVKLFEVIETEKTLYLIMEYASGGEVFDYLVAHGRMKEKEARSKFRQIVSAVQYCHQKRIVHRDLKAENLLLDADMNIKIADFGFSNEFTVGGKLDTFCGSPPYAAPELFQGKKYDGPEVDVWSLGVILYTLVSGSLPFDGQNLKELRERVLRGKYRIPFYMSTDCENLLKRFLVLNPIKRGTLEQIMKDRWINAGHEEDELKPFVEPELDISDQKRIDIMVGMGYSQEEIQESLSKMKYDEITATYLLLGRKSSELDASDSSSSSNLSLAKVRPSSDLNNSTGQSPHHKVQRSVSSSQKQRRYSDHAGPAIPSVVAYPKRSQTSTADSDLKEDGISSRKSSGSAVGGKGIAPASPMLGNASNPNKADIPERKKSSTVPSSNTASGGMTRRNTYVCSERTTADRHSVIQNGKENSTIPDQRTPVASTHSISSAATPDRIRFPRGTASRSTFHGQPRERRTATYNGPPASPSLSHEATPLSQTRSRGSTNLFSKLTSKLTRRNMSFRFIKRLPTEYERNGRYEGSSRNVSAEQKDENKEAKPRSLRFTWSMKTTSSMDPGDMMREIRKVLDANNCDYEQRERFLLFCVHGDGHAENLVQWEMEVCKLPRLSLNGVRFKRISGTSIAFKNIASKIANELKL
Chain of NEK7 (Q8TDX7 whole entry, species assumed): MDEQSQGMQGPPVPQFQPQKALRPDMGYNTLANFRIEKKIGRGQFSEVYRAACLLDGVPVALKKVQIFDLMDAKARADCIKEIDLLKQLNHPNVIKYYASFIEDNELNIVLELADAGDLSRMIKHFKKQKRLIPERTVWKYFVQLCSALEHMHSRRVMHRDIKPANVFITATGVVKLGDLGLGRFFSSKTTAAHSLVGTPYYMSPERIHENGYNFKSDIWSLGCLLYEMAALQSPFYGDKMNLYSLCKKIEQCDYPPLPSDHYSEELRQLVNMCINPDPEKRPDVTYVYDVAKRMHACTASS
Chain of SRPK1 (Q96SB4 whole entry, species assumed): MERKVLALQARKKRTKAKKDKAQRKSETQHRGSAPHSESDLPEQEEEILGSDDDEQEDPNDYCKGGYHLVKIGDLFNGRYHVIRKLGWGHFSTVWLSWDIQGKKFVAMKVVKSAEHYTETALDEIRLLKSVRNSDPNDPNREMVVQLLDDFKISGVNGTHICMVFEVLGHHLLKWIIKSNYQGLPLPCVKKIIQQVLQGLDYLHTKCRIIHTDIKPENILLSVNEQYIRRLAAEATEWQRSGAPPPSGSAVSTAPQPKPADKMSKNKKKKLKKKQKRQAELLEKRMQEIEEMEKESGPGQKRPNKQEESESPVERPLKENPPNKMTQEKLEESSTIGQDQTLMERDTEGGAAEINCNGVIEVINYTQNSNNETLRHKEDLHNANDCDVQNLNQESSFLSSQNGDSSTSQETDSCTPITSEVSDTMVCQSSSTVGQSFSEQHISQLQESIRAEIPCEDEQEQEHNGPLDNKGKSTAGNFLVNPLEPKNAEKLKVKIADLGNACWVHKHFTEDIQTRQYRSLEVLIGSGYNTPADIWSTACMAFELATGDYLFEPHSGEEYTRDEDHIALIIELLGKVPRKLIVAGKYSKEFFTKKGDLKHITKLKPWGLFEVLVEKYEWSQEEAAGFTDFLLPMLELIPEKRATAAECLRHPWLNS
Chain of Aurora B (Q96GD4 whole entry): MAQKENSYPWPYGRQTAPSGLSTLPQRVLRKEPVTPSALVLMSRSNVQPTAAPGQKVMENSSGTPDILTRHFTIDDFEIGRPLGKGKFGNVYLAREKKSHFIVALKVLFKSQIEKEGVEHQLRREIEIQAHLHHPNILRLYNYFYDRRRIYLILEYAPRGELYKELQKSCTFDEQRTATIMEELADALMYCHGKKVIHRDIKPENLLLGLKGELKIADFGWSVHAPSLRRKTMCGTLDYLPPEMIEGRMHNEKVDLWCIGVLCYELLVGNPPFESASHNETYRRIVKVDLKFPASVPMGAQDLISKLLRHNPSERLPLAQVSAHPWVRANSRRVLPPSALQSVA
Chain of MAPKAP-K3 (Q16644 whole entry, species assumed): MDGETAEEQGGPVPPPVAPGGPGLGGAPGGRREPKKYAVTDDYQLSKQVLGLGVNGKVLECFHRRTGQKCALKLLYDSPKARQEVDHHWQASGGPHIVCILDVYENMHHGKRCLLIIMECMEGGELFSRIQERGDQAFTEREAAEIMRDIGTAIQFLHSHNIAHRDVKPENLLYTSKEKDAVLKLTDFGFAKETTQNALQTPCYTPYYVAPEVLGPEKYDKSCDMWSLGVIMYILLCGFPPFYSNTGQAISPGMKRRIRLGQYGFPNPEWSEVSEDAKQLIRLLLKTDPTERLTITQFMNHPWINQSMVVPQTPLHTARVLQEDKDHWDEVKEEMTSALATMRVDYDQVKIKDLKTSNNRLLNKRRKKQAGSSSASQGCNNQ
Chain of MNK2 (Q9HBH9 whole entry, species assumed): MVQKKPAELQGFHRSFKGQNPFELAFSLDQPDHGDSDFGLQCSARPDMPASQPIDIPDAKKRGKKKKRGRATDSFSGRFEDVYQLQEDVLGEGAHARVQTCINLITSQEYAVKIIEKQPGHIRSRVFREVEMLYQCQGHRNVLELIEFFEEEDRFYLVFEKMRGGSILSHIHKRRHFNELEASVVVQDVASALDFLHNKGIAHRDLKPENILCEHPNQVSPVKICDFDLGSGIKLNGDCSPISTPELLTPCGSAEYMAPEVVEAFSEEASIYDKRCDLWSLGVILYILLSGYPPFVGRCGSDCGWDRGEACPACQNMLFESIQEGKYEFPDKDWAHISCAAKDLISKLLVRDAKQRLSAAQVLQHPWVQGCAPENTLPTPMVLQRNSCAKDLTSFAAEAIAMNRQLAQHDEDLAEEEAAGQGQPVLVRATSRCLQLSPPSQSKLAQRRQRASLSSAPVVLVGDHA
Chain of MNK1 (Q9BUB5 whole entry, species assumed): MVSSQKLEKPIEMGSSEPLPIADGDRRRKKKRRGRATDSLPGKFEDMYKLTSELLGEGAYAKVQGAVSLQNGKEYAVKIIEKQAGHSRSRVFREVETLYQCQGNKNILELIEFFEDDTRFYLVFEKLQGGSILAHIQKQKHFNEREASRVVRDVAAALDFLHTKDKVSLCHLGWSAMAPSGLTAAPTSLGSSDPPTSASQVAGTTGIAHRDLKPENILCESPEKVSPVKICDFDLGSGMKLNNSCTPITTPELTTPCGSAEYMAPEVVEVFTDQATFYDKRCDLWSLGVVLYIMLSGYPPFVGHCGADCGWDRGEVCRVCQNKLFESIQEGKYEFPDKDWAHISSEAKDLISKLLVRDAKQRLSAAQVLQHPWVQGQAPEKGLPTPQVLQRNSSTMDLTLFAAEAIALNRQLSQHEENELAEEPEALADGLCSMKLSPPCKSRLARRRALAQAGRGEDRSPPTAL

COc1ccc2c3c([nH]c2c1)C(C)=NCC3 [Harmaline]
remaining activity at 1 µM (MARK3; inhibitor 1 μM): 99% | remaining activity at 10 µM (MARK3; inhibitor 10 μM): 103% | remaining activity at 1 µM (EFK2; inhibitor 1 μM): 106% | remaining activity at 10 µM (EFK2; inhibitor 10 μM): 100% | remaining activity at 1 µM (MAPKAP-K3; inhibitor 1 μM): 79% | remaining activity at 10 µM (MAPKAP-K3; inhibitor 10 μM): 82% | remaining activity at 1 µM (MNK2; inhibitor 1 μM): 88% | remaining activity at 10 µM (MNK2; inhibitor 10 μM): 77% | remaining activity at 1 µM (NEK7; inhibitor 1 μM): 95% | remaining activity at 10 µM (NEK7; inhibitor 10 μM): 115% | remaining activity at 1 µM (SRPK1; inhibitor 1 μM): 104% | remaining activity at 10 µM (SRPK1; inhibitor 10 μM): 97% | remaining activity at 1 µM (Aurora B; inhibitor 1 μM): 98% | remaining activity at 10 µM (Aurora B; inhibitor 10 μM): 112% | remaining activity at 1 µM (MNK1; inhibitor 1 μM): 89% | remaining activity at 10 µM (MNK1; inhibitor 10 μM): 82%

COc1ccc2c(c1)[nH]c1c(C)nccc12 [Harmine]
remaining activity at 1 µM (MARK3): 86% | remaining activity at 10 µM (MARK3): 86% | remaining activity at 1 µM (EFK2): 102% | remaining activity at 10 µM (EFK2): 101% | remaining activity at 1 µM (MAPKAP-K3): 89% | remaining activity at 10 µM (MAPKAP-K3): 93% | remaining activity at 1 µM (MNK2): 84% | remaining activity at 10 µM (MNK2): 98% | remaining activity at 1 µM (NEK7): 90% | remaining activity at 10 µM (NEK7): 92% | remaining activity at 1 µM (SRPK1): 86% | remaining activity at 10 µM (SRPK1): 83% | remaining activity at 1 µM (Aurora B): 100% | remaining activity at 10 µM (Aurora B): 102% | remaining activity at 1 µM (MNK1): 84% | remaining activity at 10 µM (MNK1): 52%

CC1=NCCc2c1[nH]c1cc(O)ccc21 [Harmalol]
remaining activity at 1 µM (MARK3; inhibitor 1 μM): 93% | remaining activity at 10 µM (MARK3; inhibitor 10 μM): 84% | remaining activity at 1 µM (EFK2; inhibitor 1 μM): 97% | remaining activity at 10 µM (EFK2; inhibitor 10 μM): 85% | remaining activity at 1 µM (MAPKAP-K3; inhibitor 1 μM): 95% | remaining activity at 10 µM (MAPKAP-K3; inhibitor 10 μM): 88% | remaining activity at 1 µM (MNK2; inhibitor 1 μM): 97% | remaining activity at 10 µM (MNK2; inhibitor 10 μM): 71% | remaining activity at 1 µM (NEK7; inhibitor 1 μM): 83% | remaining activity at 10 µM (NEK7; inhibitor 10 μM): 56% | remaining activity at 1 µM (SRPK1; inhibitor 1 μM): 88% | remaining activity at 10 µM (SRPK1; inhibitor 10 μM): 72% | remaining activity at 1 µM (Aurora B; inhibitor 1 μM): 110% | remaining activity at 10 µM (Aurora B; inhibitor 10 μM): 83% | remaining activity at 1 µM (MNK1; inhibitor 1 μM): 80% | remaining activity at 10 µM (MNK1; inhibitor 10 μM): 48%
